# Species on record: Rattus norvegicus
# Assay: DrugMatrix - Regimen: Daily Repeat
# Format: toxicity, organism-based, Sprague-Dawley
# Set-up: regimen Daily Repeat, gender Male, age 6-8 weeks
# Conditions: in vivo, po, route oral GAVAGE, vehicle .5 % CMC; for ABSOLUTE BASOPHIL / ABSOLUTE EOSINOPHIL / ABSOLUTE LYMPHOCYTE / ABSOLUTE MONOCYTE / ABSOLUTE SEGMENTED NEUTROPHIL / BASOPHIL / EOSINOPHIL / ERYTHROCYTE COUNT / HEMATOCRIT / HEMOGLOBIN / LEUKOCYTE COUNT / LYMPHOCYTE / MEAN CORPUSCULAR HEMOGLOBIN / MEAN CORPUSCULAR HEMOGLOBIN CONCENTRATION / MEAN CORPUSCULAR VOLUME / MONOCYTE / NEUTROPHIL / NUCLEATED RED BLOOD CELLS / PLATELET COUNT: tissue Blood; for ALANINE AMINOTRANSFERASE / ALBUMIN / ALKALINE PHOSPHATASE / ASPARTATE AMINOTRANSFERASE / BLOOD UREA NITROGEN / CARBON DIOXIDE / CHLORIDE / CHOLESTEROL / CREATINE PHOSPHOKINASE / CREATININE / GLUCOSE / LACTATE DEHYDROGENASE / LIPASE / PHOSPHORUS / POTASSIUM / SODIUM / TOTAL BILIRUBIN / TOTAL PROTEIN / URIC ACID: tissue Plasma
# [1] = 22 mg/kg, 72 h, dose level High, time 3 day
# [2] = 22 mg/kg, 120 h, dose level High, time 5 day
# [3] = […], 72 h, dose 2.2 mg/Kg, dose level Low, time 3 day
# [4] = […], 120 h, dose 2.2 mg/Kg, dose level Low, time 5 day
compound,measurement,setting,value
Cc1cc(C(C#N)c2ccc(Cl)cc2)c(Cl)cc1NC(=O)c1cc(I)cc(I)c1O (configuration not stated) [CLOSANTEL],ABSOLUTE BASOPHIL,[1],0 CELLS/uL
same,ABSOLUTE EOSINOPHIL,[1],101.33 CELLS/uL
same,ABSOLUTE LYMPHOCYTE,[1],16742.67 CELLS/uL
same,ABSOLUTE MONOCYTE,[1],54 CELLS/uL
same,ABSOLUTE SEGMENTED NEUTROPHIL,[1],802 CELLS/uL
same,BASOPHIL,[1],0%
same,EOSINOPHIL,[1],0.67%
same,ERYTHROCYTE COUNT,[1],4.94 x10E6/uL
same,HEMATOCRIT,[1],31.43%
same,HEMOGLOBIN,[1],12.7 G/DL
same,LEUKOCYTE COUNT,[1],17.7 x10E3/uL
same,LYMPHOCYTE,[1],94.67%
same,MEAN CORPUSCULAR HEMOGLOBIN,[1],25.77 pg
same,MEAN CORPUSCULAR HEMOGLOBIN CONCENTRATION,[1],40.4 G/DL
same,MEAN CORPUSCULAR VOLUME,[1],63.77 fL
same,MONOCYTE,[1],0.33%
same,NEUTROPHIL,[1],4.33%
same,NUCLEATED RED BLOOD CELLS,[1],0 /100WBC
same,PLATELET COUNT,[1],1110.67 x10E3/uL
same,ALANINE AMINOTRANSFERASE,[1],49.67 u/L
same,ALBUMIN,[1],4.27 G/DL
same,ALKALINE PHOSPHATASE,[1],612.33 u/L
same,ASPARTATE AMINOTRANSFERASE,[1],122.67 u/L
same,BLOOD UREA NITROGEN,[1],16.33 mg/dL
same,CARBON DIOXIDE,[1],27.67 mmol/L
same,CHLORIDE,[1],103.67 MEQ/L
same,CHOLESTEROL,[1],73 mg/dL
same,CREATINE PHOSPHOKINASE,[1],369 u/L
same,CREATININE,[1],0.19 mg/dL
same,GLUCOSE,[1],171.33 mg/dL
same,LACTATE DEHYDROGENASE,[1],163.67 u/L
same,LIPASE,[1],9 u/L
same,PHOSPHORUS,[1],12.43 mg/dL
same,POTASSIUM,[1],6.8 MEQ/L
same,SODIUM,[1],145.83 MEQ/L
same,TOTAL BILIRUBIN,[1],0.2 mg/dL
same,TOTAL PROTEIN,[1],5.73 G/DL
same,URIC ACID,[1],2.13 mg/dL
same,ABSOLUTE BASOPHIL,[2],0 CELLS/uL
same,ABSOLUTE EOSINOPHIL,[2],0 CELLS/uL
same,ABSOLUTE LYMPHOCYTE,[2],18393.33 CELLS/uL
same,ABSOLUTE MONOCYTE,[2],203.33 CELLS/uL
same,ABSOLUTE SEGMENTED NEUTROPHIL,[2],2403.33 CELLS/uL
same,BASOPHIL,[2],0%
same,EOSINOPHIL,[2],0%
same,ERYTHROCYTE COUNT,[2],5.7 x10E6/uL
same,HEMATOCRIT,[2],36.13%
same,HEMOGLOBIN,[2],14.47 G/DL
same,LEUKOCYTE COUNT,[2],21 x10E3/uL
same,LYMPHOCYTE,[2],87.33%
same,MEAN CORPUSCULAR HEMOGLOBIN,[2],25.4 pg
same,MEAN CORPUSCULAR HEMOGLOBIN CONCENTRATION,[2],40.03 G/DL
same,MEAN CORPUSCULAR VOLUME,[2],63.4 fL
same,MONOCYTE,[2],1%
same,NEUTROPHIL,[2],11.67%
same,NUCLEATED RED BLOOD CELLS,[2],0.33 /100WBC
same,PLATELET COUNT,[2],1280.33 x10E3/uL
same,ALANINE AMINOTRANSFERASE,[2],76 u/L
same,ALBUMIN,[2],4.63 G/DL
same,ALKALINE PHOSPHATASE,[2],586.33 u/L
same,ASPARTATE AMINOTRANSFERASE,[2],169.33 u/L
same,BLOOD UREA NITROGEN,[2],25 mg/dL
same,CARBON DIOXIDE,[2],32 mmol/L
same,CHLORIDE,[2],101.67 MEQ/L
same,CHOLESTEROL,[2],84 mg/dL
same,CREATINE PHOSPHOKINASE,[2],365.33 u/L
same,CREATININE,[2],0.32 mg/dL
same,GLUCOSE,[2],141.67 mg/dL
same,LACTATE DEHYDROGENASE,[2],335.67 u/L
same,LIPASE,[2],11.67 u/L
same,PHOSPHORUS,[2],11.47 mg/dL
same,POTASSIUM,[2],7.16 MEQ/L
same,SODIUM,[2],143.5 MEQ/L
same,TOTAL BILIRUBIN,[2],0.2 mg/dL
same,TOTAL PROTEIN,[2],6 G/DL
same,URIC ACID,[2],1.9 mg/dL
same,ABSOLUTE BASOPHIL,[3],0 CELLS/uL
same,ABSOLUTE EOSINOPHIL,[3],27.33 CELLS/uL
same,ABSOLUTE LYMPHOCYTE,[3],7010.67 CELLS/uL
same,ABSOLUTE MONOCYTE,[3],50 CELLS/uL
same,ABSOLUTE SEGMENTED NEUTROPHIL,[3],645.33 CELLS/uL
same,BASOPHIL,[3],0%
same,EOSINOPHIL,[3],0.33%
same,ERYTHROCYTE COUNT,[3],5.2 x10E6/uL
same,HEMATOCRIT,[3],33.97%
same,HEMOGLOBIN,[3],13.53 G/DL
same,LEUKOCYTE COUNT,[3],7.73 x10E3/uL
same,LYMPHOCYTE,[3],90.33%
same,MEAN CORPUSCULAR HEMOGLOBIN,[3],26.1 pg
same,MEAN CORPUSCULAR HEMOGLOBIN CONCENTRATION,[3],39.83 G/DL
same,MEAN CORPUSCULAR VOLUME,[3],65.4 fL
same,MONOCYTE,[3],0.67%
same,NEUTROPHIL,[3],8.67%
same,NUCLEATED RED BLOOD CELLS,[3],0 /100WBC
same,PLATELET COUNT,[3],1123.67 x10E3/uL
same,ALANINE AMINOTRANSFERASE,[3],51 u/L
same,ALBUMIN,[3],4.37 G/DL
same,ALKALINE PHOSPHATASE,[3],453.33 u/L
same,ASPARTATE AMINOTRANSFERASE,[3],101.67 u/L
same,BLOOD UREA NITROGEN,[3],17.33 mg/dL
same,CARBON DIOXIDE,[3],35.33 mmol/L
same,CHLORIDE,[3],98.67 MEQ/L
same,CHOLESTEROL,[3],78.67 mg/dL
same,CREATINE PHOSPHOKINASE,[3],529.33 u/L
same,CREATININE,[3],0.26 mg/dL
same,GLUCOSE,[3],127 mg/dL
same,LACTATE DEHYDROGENASE,[3],156.67 u/L
same,LIPASE,[3],9.67 u/L
same,PHOSPHORUS,[3],11.27 mg/dL
same,POTASSIUM,[3],6.78 MEQ/L
same,SODIUM,[3],144.6 MEQ/L
same,TOTAL BILIRUBIN,[3],0.17 mg/dL
same,TOTAL PROTEIN,[3],6.27 G/DL
same,URIC ACID,[3],0.93 mg/dL
same,ABSOLUTE BASOPHIL,[4],0 CELLS/uL
same,ABSOLUTE EOSINOPHIL,[4],0 CELLS/uL
same,ABSOLUTE LYMPHOCYTE,[4],9886.33 CELLS/uL
same,ABSOLUTE MONOCYTE,[4],68.67 CELLS/uL
same,ABSOLUTE SEGMENTED NEUTROPHIL,[4],945 CELLS/uL
same,BASOPHIL,[4],0%
same,EOSINOPHIL,[4],0%
same,ERYTHROCYTE COUNT,[4],5.61 x10E6/uL
same,HEMATOCRIT,[4],35.17%
same,HEMOGLOBIN,[4],14 G/DL
same,LEUKOCYTE COUNT,[4],10.9 x10E3/uL
same,LYMPHOCYTE,[4],90.33%
same,MEAN CORPUSCULAR HEMOGLOBIN,[4],24.93 pg
same,MEAN CORPUSCULAR HEMOGLOBIN CONCENTRATION,[4],39.83 G/DL
same,MEAN CORPUSCULAR VOLUME,[4],62.63 fL
same,MONOCYTE,[4],0.67%
same,NEUTROPHIL,[4],9%
same,NUCLEATED RED BLOOD CELLS,[4],0 /100WBC
same,PLATELET COUNT,[4],1205.67 x10E3/uL
same,ALANINE AMINOTRANSFERASE,[4],49 u/L
same,ALBUMIN,[4],4.43 G/DL
same,ALKALINE PHOSPHATASE,[4],427.33 u/L
same,ASPARTATE AMINOTRANSFERASE,[4],75 u/L
same,BLOOD UREA NITROGEN,[4],18 mg/dL
same,CARBON DIOXIDE,[4],29.67 mmol/L
same,CHLORIDE,[4],103 MEQ/L
same,CHOLESTEROL,[4],72.33 mg/dL
same,CREATINE PHOSPHOKINASE,[4],164.33 u/L
same,CREATININE,[4],0.18 mg/dL
same,GLUCOSE,[4],146.67 mg/dL
same,LACTATE DEHYDROGENASE,[4],113.67 u/L
same,LIPASE,[4],8.33 u/L
same,PHOSPHORUS,[4],13.67 mg/dL
same,POTASSIUM,[4],7.15 MEQ/L
same,SODIUM,[4],146.83 MEQ/L
same,TOTAL BILIRUBIN,[4],0.23 mg/dL
same,TOTAL PROTEIN,[4],6.6 G/DL
same,URIC ACID,[4],1.7 mg/dL
